Reference: patent publication US9718800B2, “Chromenone derivatives” (AstraZeneca AB, priority 2009, dated 2017)
pIC50: −log10 of the molar value.

Biological target: PI3Kβ (Homo sapiens (Human), UniProt P42338)
Assay: In vitro enzyme inhibition assay (Kinase Glo based enzyme activity assay)
Format: biochemical
Details: Test (a), Table A
Experimental: (a) In Vitro Enzyme Inhibition Assay
The inhibition of PI3Kβ, PI3Kα, PI3Kγ and PI3Kδ was evaluated in a Kinase Glo based enzyme activity assay using human recombinant enzymes. The assay measures depletion of ATP after incubation with enzyme, PIP2 and ATP plus compound. ATP at the end of the reaction is detected by addition of Kinase Glo reagent, in this the Ultra Glo™ luciferase (Promega) uses the ATP as a substrate to catalyze the mono-oxygenation of luciferin and the generation of light. A direct relationship exists between the luminescence measured with the Kinase-Glo Plus Reagent and the amount of ATP remaining in a completed kinase reaction and luminescence is inversely related to kinase activity.
Compounds in 100% DMSO were added to assay plates by acoustic dispensing. PI3Kβ was added in a Tris buffer (50 mM Tris pH7.4, 0.05% CHAPS, 2.1 mM DTT, and 10 mM MgCl2) and allowed to preincubate with compound for 20 minutes prior to addition of substrate solution containing PIP2 and ATP. The enzyme reaction was stopped after 80 minutes by the addition of Kinase Glo detection solution. Plates were left for 30 minutes at room temperature then read on a Pherastar Instrument (Luminescence ATP 384 program) setting gain on max well. […]
IC50 values were calculated using a log curve fitting to a non-linear regression package, fitting raw data to inhibitor concentration.

Sequence of PI3Kβ (P42338 whole entry): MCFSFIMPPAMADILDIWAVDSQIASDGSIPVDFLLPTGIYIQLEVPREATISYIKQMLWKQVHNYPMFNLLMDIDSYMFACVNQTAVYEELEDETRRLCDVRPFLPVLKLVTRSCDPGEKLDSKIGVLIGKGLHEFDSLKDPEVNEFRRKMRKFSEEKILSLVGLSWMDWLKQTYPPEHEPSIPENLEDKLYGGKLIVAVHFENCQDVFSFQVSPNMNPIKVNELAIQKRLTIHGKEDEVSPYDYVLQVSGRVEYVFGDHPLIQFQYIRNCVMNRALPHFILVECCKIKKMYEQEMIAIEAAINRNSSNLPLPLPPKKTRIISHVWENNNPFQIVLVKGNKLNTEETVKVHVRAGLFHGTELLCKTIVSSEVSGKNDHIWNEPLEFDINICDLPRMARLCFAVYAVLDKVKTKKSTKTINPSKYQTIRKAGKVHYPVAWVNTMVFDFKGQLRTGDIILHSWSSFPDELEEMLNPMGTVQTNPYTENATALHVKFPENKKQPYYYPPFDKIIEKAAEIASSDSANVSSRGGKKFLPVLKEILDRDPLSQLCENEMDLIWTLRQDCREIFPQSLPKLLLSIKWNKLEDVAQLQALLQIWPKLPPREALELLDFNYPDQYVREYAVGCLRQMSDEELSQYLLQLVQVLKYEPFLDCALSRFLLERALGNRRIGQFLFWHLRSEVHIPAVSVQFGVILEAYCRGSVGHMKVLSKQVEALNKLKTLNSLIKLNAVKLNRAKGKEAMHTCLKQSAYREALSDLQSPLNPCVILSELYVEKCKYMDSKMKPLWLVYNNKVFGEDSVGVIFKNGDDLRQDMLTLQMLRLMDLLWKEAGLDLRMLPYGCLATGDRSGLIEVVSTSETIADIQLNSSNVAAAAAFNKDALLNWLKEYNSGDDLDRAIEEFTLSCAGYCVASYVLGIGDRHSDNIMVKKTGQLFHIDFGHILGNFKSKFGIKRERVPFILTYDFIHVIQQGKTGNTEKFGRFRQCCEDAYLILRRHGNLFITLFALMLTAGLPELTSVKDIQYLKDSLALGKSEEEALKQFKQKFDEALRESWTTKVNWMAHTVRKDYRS
Sequence of PI3Kβ (P27986 whole entry partner): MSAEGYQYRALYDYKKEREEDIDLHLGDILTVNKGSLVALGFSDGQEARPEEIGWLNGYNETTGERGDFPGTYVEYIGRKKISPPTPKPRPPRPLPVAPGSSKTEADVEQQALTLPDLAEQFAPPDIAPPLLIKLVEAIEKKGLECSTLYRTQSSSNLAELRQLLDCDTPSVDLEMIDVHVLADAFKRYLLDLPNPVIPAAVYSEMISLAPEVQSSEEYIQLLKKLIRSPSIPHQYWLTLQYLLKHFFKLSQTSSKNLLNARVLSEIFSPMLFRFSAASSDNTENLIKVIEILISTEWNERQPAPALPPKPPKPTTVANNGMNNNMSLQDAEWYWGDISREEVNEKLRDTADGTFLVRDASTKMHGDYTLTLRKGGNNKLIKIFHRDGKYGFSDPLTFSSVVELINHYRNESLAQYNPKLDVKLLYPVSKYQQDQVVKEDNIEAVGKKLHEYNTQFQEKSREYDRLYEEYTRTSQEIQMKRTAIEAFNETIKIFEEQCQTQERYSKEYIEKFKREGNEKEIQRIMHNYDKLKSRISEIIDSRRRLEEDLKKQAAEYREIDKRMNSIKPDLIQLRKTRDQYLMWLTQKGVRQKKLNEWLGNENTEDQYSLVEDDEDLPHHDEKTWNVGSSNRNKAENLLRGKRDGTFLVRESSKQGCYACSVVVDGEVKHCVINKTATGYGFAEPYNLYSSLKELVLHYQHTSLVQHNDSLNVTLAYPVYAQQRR

- pIC50: 8.22
SMILES: CC(c1cc(C(=O)NCCN(C)C)cc2c(=O)cc(N3CCOCC3)oc12)N(C)c1ccc(F)c(F)c1 (stereo not shown) [Example 3.01, 8-(1-((3,4-difluorophenyl)(methyl)amino)ethyl)-N-(2-(dimethylamino)ethyl)-2-morpholino-4-oxo-4H-chromene-6-carboxamide]
